Assay: xn = mol fraction of the nth substance listed
Conditions: 101.3 kPa, Liquid; for viscosity: Capillary tube (Ostwald / Ubbelohde) method

OCCCO [propan-1,3-diol] + O
Conditions | mass density, 318.15 K [kg/m3] | mass density, 328.15 K [kg/m3] | speed of sound, 318.15 K [m/s] | speed of sound, 328.15 K [m/s] | viscosity, 328.15 K [mPa·s]
x2 = 0.0622 | – | 1031.1 | – | 1585.1 | 10.49
x2 = 0.1496 | – | 1031.18 | – | 1591.1 | 9.407
x2 = 0.2563 | – | 1031.17 | – | 1603.2 | 8.114
x2 = 0.35 | – | 1030.98 | – | 1618.2 | 6.986
x2 = 0.4555 | – | 1030.32 | – | 1635.8 | 5.721
x2 = 0.5 | – | 1029.79 | 1667 | 1642.1 | 5.192
x2 = 0.5548 | 1035.46 | 1028.83 | 1674.1 | 1649.1 | 4.547
x2 = 0.6522 | 1032.48 | 1025.94 | 1682 | 1657.8 | 3.436
x2 = 0.7553 | 1026.64 | 1020.39 | 1683 | 1661.1 | 2.346
x2 = 0.8522 | 1017.23 | 1011.49 | 1666.1 | 1651.2 | 1.456
x2 = 0.9085 | 1009.22 | 1003.89 | 1639.2 | 1630 | 1.024
x2 = 0.9147 | 1008.19 | 1002.92 | 1635.3 | 1626.2 | 0.981
x2 = 0.9255 | 1006.32 | 1001.14 | 1625.9 | 1620.2 | 0.909
x2 = 0.935 | 1004.59 | 999.49 | 1617.9 | – | 0.848
x2 = 0.9548 | 1000.71 | – | 1598.1 | – | 0.729
x2 = 0.9556 | 1000.54 | – | 1592.2 | – | 0.725
x2 = 0.9602 | 999.58 | – | 1580.1 | – | 0.699
x2 = 0.97 | 997.45 | – | 1566.1 | – | 0.646
x2 = 0.9801 | 995.14 | – | 1552.1 | – | 0.594
x2 = 0.9897 | 992.82 | – | 1549.9 | – | 0.549
x2 = 0.9921 | 992.23 | – | 1548.1 | – | 0.538
x2 = 0.9951 | 991.47 | – | 1543.2 | – | 0.524

— the NIST ThermoML archive (doi:10.1021/je0340755)
